# Results as given in US7674795B2, “Fluorene derivatives, composition containing said derivatives and the use thereof” (Aventis Pharma SA, priority 2005, dated 2010).
# Where a name gives a salt, the structure may show the parent alone.
# Biological target: Hsp82 (Saccharomyces cerevisiae, UniProt P02829)
# Assay: PK/LDH enzyme coupling test of the ATPase activity of Hsp82 (NADH decrease at 340 nm)
# Assay type: biochemical
# Settings: 1 μM Hsp82, 250 μM ATP, 37° C., pyruvate kinase/lactate dehydrogenase coupling, read-out: Hsp82 ATPase IC50
# Excerpt: The formation of ADP due to the ATPase activity of Hsp82 was utilized for developing another method of evaluating the enzymatic activity of this enzyme by application of an enzyme coupling system employing pyruvate kinase (PK) and lactate dehydrogenase (LDH). In this spectrophotometric method of the kinetic type, the PK catalyses the formation of ATP and of pyruvate starting from phosphoenol-pyruvate (PEP) and the ADP produced by HSP82. The pyruvate that formed, an LDH substrate, is then converted to lactate in the presence of NADH. In this case, the decrease in the concentration of NADH, measured by the decrease in absorbance at wavelength of 340 nm, is proportional to the concentration of ADP produced by HSP82. […] This mixture is preincubated at 37° C. for 30 min before adding 3.77 units of LDH and 3.77 units of PK. The reaction is started by adding the product to be evaluated, in variable concentrations, and of Hsp82, at a concentration of 1 μM. The enzymatic activity of Hsp82 is then measured continuously in a microplate reader at 37° C., at wavelength of 340 nm. The initial reaction rate is found by measuring the slope of the tangent at the origin of the recorded curve. The enzymatic activity is expressed as μM of ADP formed per minute. The effect of the various products tested is expressed as percentage of inhibition of ATPase activity, using the following codes: • A: […]
# Sequence of Hsp82 (P02829 whole entry): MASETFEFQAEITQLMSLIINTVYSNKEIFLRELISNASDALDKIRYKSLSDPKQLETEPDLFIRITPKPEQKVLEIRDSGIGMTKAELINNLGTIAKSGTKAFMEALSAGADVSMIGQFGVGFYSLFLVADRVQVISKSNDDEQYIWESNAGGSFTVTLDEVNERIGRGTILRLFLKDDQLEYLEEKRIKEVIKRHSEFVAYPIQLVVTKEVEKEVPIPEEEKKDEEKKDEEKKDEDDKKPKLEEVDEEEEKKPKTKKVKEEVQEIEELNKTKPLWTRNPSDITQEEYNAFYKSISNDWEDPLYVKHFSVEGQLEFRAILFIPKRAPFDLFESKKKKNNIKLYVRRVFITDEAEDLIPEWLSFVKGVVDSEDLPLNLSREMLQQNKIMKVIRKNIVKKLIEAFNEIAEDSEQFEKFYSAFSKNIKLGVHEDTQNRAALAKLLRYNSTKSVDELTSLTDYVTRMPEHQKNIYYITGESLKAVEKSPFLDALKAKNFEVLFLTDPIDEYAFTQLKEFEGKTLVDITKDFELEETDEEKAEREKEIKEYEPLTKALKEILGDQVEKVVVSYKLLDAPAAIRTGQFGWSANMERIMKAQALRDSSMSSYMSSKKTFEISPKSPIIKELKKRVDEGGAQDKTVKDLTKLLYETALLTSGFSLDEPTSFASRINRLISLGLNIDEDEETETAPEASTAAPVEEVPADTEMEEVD
row,IC50 [µM],SMILES
1,1 to 10,"O=C(NC1c2ccccc2-c2c(-c3nc4ccncc4[nH]3)cccc21)c1cc(O)ncn1 (stereo not shown) [Example 93, [4-(3H-imidazo[4,5-c]pyridin-2-yl)-9H-fluoren-9-yl]amide of 6-hydroxypyrimidine-4-carboxylic acid]"
2,1 to 10,"COCCCNC(=O)c1cc(C(=O)NC2c3ccccc3-c3c(-c4nc5ccncc5[nH]4)cccc32)ccn1 (racemic) [Example 112, 4-{[4-(3H-imidazo[4,5-c]pyridin-2-yl)-9H-fluoren-9(R,S)-yl]amide}-2-[(3-methoxy-propyl)-amide] of pyridine-2,4-dicarboxylic acid]"
3,1 to 10,"CCOC(=O)NC1c2ccccc2-c2c(-c3nc4cnccc4[nH]3)cccc21 (racemic) [Example 20, ethyl ester of [4-(3H-imidazo[4,5-c]pyridin-2-yl)-9H-fluoren-9(R,S)-yl]-carbamoic acid]"
4,< 1,"O=C(NC1c2ccccc2-c2c(-c3nc4cnccc4[nH]3)cccc21)c1ccnc2ccccc12 (racemic) [Example 67, [4-(3H-imidazo[4,5-c]pyridin-2-yl)-9H-fluoren-9(R,S)-yl]amide of quinoline-4-carboxylic acid]"
5,1 to 10,"O=C(NC1c2ccccc2-c2c(-c3nc4ccncc4[nH]3)cccc21)c1cccc2c1C=CCO2 (racemic) [Example 38, [4-(3H-imidazo[4,5-c]pyridin-2-yl)-9H-fluoren-9(R,S)-yl]amide trifluoroacetate of 2H-1-benzopyran-5-carboxylic acid]"
6,10 to 100,"O=C1CNC(=O)N1C1c2ccccc2-c2c(-c3nc4ccncc4[nH]3)cccc21 (racemic) [Example 80, 3-[4-(3H-imidazo[4,5-c]pyridin-2-yl)-9H-fluoren-9(R,S)-yl]-imidazolidine-2,4-dione]"
7,1 to 10,"NC(=O)NCC(=O)NC1c2ccccc2-c2c(-c3nc4cnccc4[nH]3)cccc21 (racemic) [Example 58, N-[4-(3H-imidazo[4,5-c]pyridin-2-yl)-9H-fluoren-9(R,S)-yl]-2-ureido-acetamide]"
8,< 1,"COC(=O)c1cc(C(=O)NC2c3ccccc3-c3c(-c4nc5ccncc5[nH]4)cccc32)ccn1 (racemic) [Example 108, methyl ester of 4-[4-(3H-imidazo[4,5-c]pyridin-2-yl)-9H-fluoren-9(R,S)-ylcarbamoyl]-pyridine-2-carboxylic acid]"
9,10 to 100,"O=C(NC1c2ccccc2-c2c(-c3nc4cnccc4[nH]3)cccc21)c1nccc2ccccc12 (racemic) [Example 64, [4-(3H-imidazo[4,5-c]pyridin-2-yl)-9H-fluoren-9(R,S)-yl]amide of isoquinoline-1-carboxylic acid]"
10,1 to 10,"O=C(OC1c2ccccc2-c2c(-c3nc4ccncc4[nH]3)cccc21)c1cccc2ncccc12 (racemic) [Example 124, 4-(3H-imidazo[4,5-c]pyridin-2-yl)-9H-fluoren-9(R,S)-yl of 5-quinolinecarboxylic acid]"
11,< 1,"CC(=O)Nc1cc(C(=O)NC2c3ccccc3-c3c(-c4nc5cnccc5[nH]4)cccc32)ccn1 (racemic) [Example 66, 2-acetylamino-N-[4-(3H-imidazo[4,5-c]pyridin-2-yl)-9H-fluoren-9(R,S)-yl]-isonicotinamide]"
12,< 1,"O=C(NC1c2ccccc2-c2c(-c3nc4ccncc4[nH]3)cccc21)c1ccnc2[nH]ccc12 (racemic) [Example 92, [4-(3H-imidazo[4,5-c]pyridin-2-yl)-9H-fluoren-9(R,S)-yl]amide of 1H-pyrrolo[2,3-b]pyridine-4-carboxylic acid]"
13,10 to 100,"NC(=O)CCNC(=O)NC1c2ccccc2-c2c(-c3nc4ccncc4[nH]3)cccc21 (racemic) [Example 79, trifluoroacetate of 3-{3-[4-(3H-imidazo[4,5-c]pyridin-2-yl)-9H-fluoren-9(R,S)-yl]-ureido}-propionamide]"
14,10 to 100,"CC(=O)CCC(=O)NC1c2ccccc2-c2c(-c3nc4ccncc4[nH]3)cccc21 (racemic) [Example 49, hydrochloride of [4-(3H-imidazo[4,5-c]pyridin-2-yl)-9H-fluoren-9(R,S)-yl]amide of 4-oxo-pentanoic acid]"
15,10 to 100,"O=C(NC1c2ccccc2-c2c(-c3nc4ccncc4[nH]3)cccc21)c1ccnc(C(=O)O)c1 (racemic) [Example 109, 4-[4-(3H-imidazo[4,5-c]pyridin-2-yl)-9H-fluoren-9(R,S)-ylcarbamoyl]-pyridine-2-carboxylic acid]"
16,1 to 10,"Nc1ccc2c(C(=O)NC3c4ccccc4-c4c(-c5nc6cnccc6[nH]5)cccc43)cccc2c1 (racemic) [Example 54, [4-(3H-imidazo[4,5-c]pyridin-2-yl)-9H-fluoren-9(R,S)-yl]amide of 6-amino-naphthalene-1-carboxylic acid]"
17,10 to 100,"CN(C)c1cccc2c(S(=O)(=O)NC3c4ccccc4-c4c(-c5nc6ccncc6[nH]5)cccc43)cccc12 (racemic) [Example 52, [4-(3H-imidazo[4,5-c]pyridin-2-yl)-9H-fluoren-9(R,S)-yl]amide trifluoroacetate of 5-dimethylamino-naphthalene-1-sulphonic acid]"
18,1 to 10,"NN=C1c2ccccc2-c2c1cccc2-c1nc2cnccc2[nH]1 (mixture of isomers) [Example 9, N-[4-(1H-imidazo[4,5-c]pyridin-2-yl)-fluoren-9-ylidene]-hydrazine, 60/40 mixture of E and Z isomers]"
19,10 to 100,"O=C(NCc1ccc(Cl)nc1)C1c2ccccc2-c2c(-c3nc4cnccc4[nH]3)cccc21 (racemic) [Example 2, (6-chloropyridin-3-ylmethyl)-amide of 4-(1H-imidazo[4,5-c]pyridin-2-yl)-9H-fluorene-9(R,S)-carboxylic acid]"
20,10 to 100,"O=C(O)C1c2ccccc2-c2c(-c3nc4cnccc4[nH]3)cccc21 (racemic) [Example 29, hydrochloride of 4-(1H-imidazo[4,5-c]pyridin-2-yl)-9H-fluorene-9(R,S)-carboxylic acid]"
21,10 to 100,"c1ccc(CCNC2c3ccccc3-c3c(-c4nc5cnccc5[nH]4)cccc32)cc1 (racemic) [Example 16, N-[4-(3H-imidazo[4,5-c]pyridin-2-yl)-9H-fluoren-9(R,S)-yl]-phenethyl-amine]"
22,1 to 10,"O=C(NC1c2ccccc2-c2c(-c3nc4ccncc4[nH]3)cccc21)N1CCOCC1 (racemic) [Example 51, [4-(3H-imidazo[4,5-c]pyridin-2-yl)-9H-fluoren-9(R,S)-yl]amide trifluoroacetate of morpholine-4-carboxylic acid]"
23,1 to 10,"O=C(NC1c2ccccc2-c2c(-c3nc4ccncc4[nH]3)cccc21)c1ccncc1F (racemic) [Example 114, 3-fluoro-N-[4-(3H-imidazo[4,5-c]pyridin-2-yl)-9H-fluoren-9(R,S)-yl]-isonicotinamide]"
24,< 1,"CCc1cc(C(=O)NC2c3ccccc3-c3c(-c4nc5ccncc5[nH]4)cccc32)ccn1 (racemic) [Example 82, 2-ethyl-N-[4-(3H-imidazo[4,5-c]pyridin-2-yl)-9H-fluoren-9(R,S)-yl]-isonicotinamide]"
25,1 to 10,"O=C(C=C1c2ccccc2-c2c1cccc2-c1nc2cnccc2[nH]1)Nc1cccnc1 (mixture of isomers) [Example 17, 2-[4-(3H-imidazo[4,5-c]pyridin-2-yl)-fluoren-(9E,Z)-ylidene]-N-pyridin-3-yl-acetamide]"
26,10 to 100,"O=C(NCc1ccncc1)C1c2ccccc2-c2c(-c3nc4cnccc4[nH]3)cccc21 (racemic) [Example 4, hydrochloride of the (pyridin-4-ylmethyl)-amide of 4-(3H-imidazo[4,5-c]pyridin-2-yl)-9H-fluorene-9(R,S)-carboxylic acid]"
27,1 to 10,"O=C(NC1c2ccccc2-c2c(-c3nc4ccncc4[nH]3)cccc21)c1ccncc1Br (racemic) [Example 98, 3-bromo-N-[4-(3H-imidazo[4,5-c]pyridin-2-yl)-9H-fluoren-9(R,S)-yl]-isonicotinamide]"
28,< 1,"O=C(N[C@H]1c2ccccc2-c2c(-c3nc4ccncc4[nH]3)cccc21)c1cccc2ncccc12 (single isomer, unassigned) [Example 14A]"
29,1 to 10,"O=C(NC1c2ccccc2-c2c(-c3nc4ccncc4[nH]3)cccc21)c1cc(C2CC2)nc2ccccc12 (stereo not shown) [Example 85, [4-(3H-imidazo[4,5-c]pyridin-2-yl)-9H-fluoren-9-yl]amide of 2-cyclopropyl-quinoline-4-carboxylic acid]"

row,SMILES,IC50 [µM]
1,"CC(C)(C)OC(=O)Nc1cc(C(=O)NC2c3ccccc3-c3c(-c4nc5ccncc5[nH]4)cccc32)ccn1 (racemic) [Example 125, N-[4-(3H-imidazo[4,5-c]pyridin-2-yl)-9H-fluoren-9(R,S)-yl]amide of 2-tert-butoxycarbonylaminoisonicotinic acid]",< 1
2,"NC(=O)NN=C1c2ccccc2-c2c1cccc2-c1nc2ccncc2[nH]1 [Example 30, trifluoroacetate of 4-(3H-imidazo[4,5-c]pyridin-2-yl)-fluoren-9-one semicarbazone (Z, E)]",10 to 100
